Laboratory results published in PubChem BioAssay AID179 (DTP/NCI, 2004).
Activity calls are given as the source filed them.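 The calls were made as follows: active = compounds giving half or more protection of infected cells from virus-caused growth loss, again on retest; inactive = the rest.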

System: CEM cells HIV-1 protection, formazan growth assay
Experiment: NCI AIDS Antiviral Assay
Conditions: for IC50: measured here: growth of uninfected CEM cells
In short: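 Human CEM cells, uninfected and HIV-1-infected, received five drug concentrations, and growth was read by soluble formazan assay. Compounds giving at least 50% protection were retested; reproducible 100% protection defined confirmed active.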

With N#Cc1c(N)sc(N)c1C#N as the molecule, how does the EC50 read?
The EC50 was > 200 µM.

What about the IC50 of the same molecule?
Its IC50 is 97.7 µM.

Which results are given for COc1ccc(C(c2ccc3c(c2)OCO3)N2C(=O)CCC2C(=O)O)cc1 (stereo not given)?
EC50: > 200 µM; IC50: > 200 µM

Which results are given for O=C1CNC(=O)c2c(ncn2C2OC(CO)CC2O)N1 (stereo not given)?
EC50: > 302 µM; IC50: > 302 µM

Which outcome does the source give for CCCCCCCCCCCCCCCCNC(=S)N/C=C(/C#N)C(=O)OC here?
The outcome was “inactive”.

CN1NC(c2ccccc2)=C(C#N)C(=O)CC1c1cccs1 (stereo not given) was tested. Which EC50 did it give?
The EC50 was > 200 µM.

And the IC50?
The IC50 was > 200 µM.

Which EC50 does the source give for n1onc2c1NC1Nc3nonc3NC1N2 (stereo not given) here?
Its EC50 is > 200 µM.

And the IC50?
Its IC50 is > 200 µM.

What does the source list for Cc1occc1C(=S)Nc1ccc(Cl)c(C(=O)OC(C)(C)C)c1?
EC50: 0.0339 µM; IC50: 9.33 µM

c1ccc(-c2cc(N3CCOCC3)c3ccccc3n2)cc1 was tested. Which outcome did it give?
Its outcome is “inactive”.

Which results are given for CSC1=C(SC)SC(=C2SC3=C(SC(=C4SCCS4)S3)S2)S1?
EC50: > 100 µM; IC50: > 100 µM

For N#C/C(=C(/Cc1ccc(F)cc1)NP(=O)(c1ccccc1)c1ccccc1)c1ccc(F)cc1, which EC50 is on record?
Its EC50 is > 21.4 µM.

And the IC50?
Its IC50 is > 21.4 µM.

O=C1c2sc(-c3ccc(F)cc3)cc2-n2cccc21 was tested. Which EC50 did it give?
Its EC50 is > 200 µM.

And the IC50?
Its IC50 is 120 µM.

Which results are given for Cc1nc2ccc(F)cc2c2c1CCN2c1ccc(Cl)cc1?
EC50: > 100 µM; IC50: 5.75 µM

How did the EC50 turn out when Oc1ccc(CCC2CCNc3ccccc32)cc1 (stereo not given) was run?
Its EC50 is > 5.01 µM.

And the IC50?
The IC50 was > 5.01 µM.

How did the EC50 turn out when COc1cccc(NCC(=O)Nn2c(-c3ccccc3)nc3ccccc3c2=O)c1 was run?
The EC50 was > 200 µM.

And the IC50?
Its IC50 is 112 µM.

Which outcome does the source give for CCCCCCCCCCCCCNC1=C(O)c2ccccc2C(=O)C1=O here?
Its outcome is “inactive”.

What does the source list for O=C1C=CC(=O)C2C3c4ccccc4C(c4ccccc43)C12 (stereo not given)?
EC50: > 34.7 µM; IC50: > 34.7 µM

What does the source list for Cc1cn(C2CC(N=[N+]=[N-])C(COC(=O)[C@H]3CCC4[C@@H]5CCC6=CC(=O)CC[C@]6(C)C5[C@@H](O)C[C@@]43C)O2)c(=O)[nH]c1=O (stereo not given in full)?
EC50: 0.138 µM; IC50: 24 µM

How did the outcome turn out when CC(C)(C)[C@H]1CO[C@]2(c3ccccc3)[C@@H]3C[C@@H]3C(=O)N12 was run?
The outcome was “inactive”.

Which EC50 does the source give for Cc1cc([N+](=O)[O-])c(C)c2c1[nH]c1ccc(Cl)cc12 here?
The EC50 was > 10 µM.

And the IC50?
Its IC50 is > 10 µM.

For O=C1NC(=O)C23CCCCc4cccc(c42)C(=O)C13 (stereo not given), which EC50 is on record?
The EC50 was > 372 µM.

And the IC50?
The IC50 was > 372 µM.

For C/C(=N\NC(N)=O)c1cc2cc([N+](=O)[O-])ccc2oc1=O, which EC50 is on record?
Its EC50 is > 70.8 µM.

What about the IC50 of the same molecule?
The IC50 was > 70.8 µM.

With COc1cc(C2c3cc4c(cc3OC(NNS(=O)(=O)c3ccc(C)cc3)C2C)OCO4)cc(OC)c1OC (stereo not given) as the molecule, how does the EC50 read?
Its EC50 is > 20 µM.

What about the IC50 of the same molecule?
The IC50 was 0.372 µM.

For Nc1ccc(Cn2ccc3c4c(N)nc(N)nc4ccc32)cc1, which outcome is on record?
Its outcome is “inactive”.

For CCC(=O)Oc1ccc2c(=O)c(-c3ccc(OC)cc3)c(CC)oc2c1, which EC50 is on record?
Its EC50 is > 200 µM.

And the IC50?
Its IC50 is 25.1 µM.

How did the EC50 turn out when [Cu+2].[O-]/C(=N\N=C/c1cccc(F)c1)c1ccncc1.[O-]/C(=N\N=C\c1cccc(F)c1)c1ccncc1 was run?
Its EC50 is > 100 µM.

What about the IC50 of the same molecule?
The IC50 was 24.5 µM.

O=S(Cc1ccccc1)/C(=C/NC(=S)N=Nc1c(O)[nH]c2ccccc12)c1ccccc1 (stereo not given) was tested. Which EC50 did it give?
Its EC50 is 58.9 µM.

What about the IC50 of the same molecule?
The IC50 was 178 µM.

Which EC50 does the source give for Nc1ccc(/C=C/c2ccc(NC(=O)c3cc(S(=O)(=O)O)c4cccnc4c3O)cc2S(=O)(=O)O)c(S(=O)(=O)O)c1 here?
Its EC50 is 58.9 µM.

And the IC50?
The IC50 was > 200 µM.

Which outcome does the source give for Cc1nc(C(N)=O)c(N)n1CCN1CCN(C(=O)CCCCCCCCCCNC2N=CNc3nc[nH]c32)CC1 (stereo not given) here?
Its outcome is “inactive”.

For C[C@]12CC[C@@H]3c4ccc(OC(=O)N(CCCl)CCCl)cc4CC[C@H]3[C@@H]1CC[C@@H]2O, which EC50 is on record?
The EC50 was > 200 µM.

And the IC50?
Its IC50 is 1.7 µM.

Which outcome does the source give for COc1ccc(Cc2nn(C3OC(COC(C)=O)C(OC(C)=O)C(OC(C)=O)C3OC(C)=O)c(=S)n(-c3ccc(OC)cc3)c2=O)cc1 (stereo not given) here?
Its outcome is “inactive”.

For CC1(C)OC2OC3C(I)CN(C(=O)OCc4ccccc4)C3C2O1 (stereo not given), which EC50 is on record?
Its EC50 is > 200 µM.

What about the IC50 of the same molecule?
The IC50 was 110 µM.

Which outcome does the source give for CN(C)C(=S)/N=c1\ssc(=S)n1C1CCCCC1 here?
Its outcome is “inactive”.

What does the source list for COC(=O)C1CC=C(SC(=O)c2ccccc2)N1C(=O)c1ccccc1 (stereo not given)?
EC50: > 200 µM; IC50: > 200 µM

What does the source list for C/C(CC(=O)Nc1cccc(C)c1C)=N\NC(N)=S?
EC50: > 468 µM; IC50: 245 µM

For COc1ccc(NC(=O)CC/C(CC(=O)c2ccccc2Cl)=N\Nc2nnc(C)n2N)cc1, which EC50 is on record?
Its EC50 is > 537 µM.

What about the IC50 of the same molecule?
The IC50 was 191 µM.

With Cc1cc2nc3c(=O)n(C)c(=O)nc-3n(-c3ccc(Cl)cc3)c2cc1C as the molecule, how does the outcome read?
Its outcome is “inactive”.

What does the source list for N#Cc1nc(Nc2cccc3ccccc23)sc1N?
EC50: > 135 µM; IC50: 60.3 µM

For Cc1ccc(NC(=O)CCc2cc(C(C)(C)C)nc(=S)[nH]2)cc1C, which EC50 is on record?
The EC50 was > 724 µM.

And the IC50?
The IC50 was 398 µM.

With O=C1OCc2cccc3c2-c2c1cccc2C(=O)OC3 as the molecule, how does the outcome read?
The outcome was “inactive”.

How did the outcome turn out when CC(=O)[O-].N.N.N.N.[Co+3].[O-][Cl+3]([O-])([O-])[O-].[OH3+] was run?
Its outcome is “inactive”.

For O=C(Nn1c(-c2ccccc2)nc2ccccc2c1=O)c1ccc(O)cc1, which EC50 is on record?
Its EC50 is > 200 µM.

And the IC50?
Its IC50 is > 200 µM.

Which results are given for CCCCC/C(=N\c1nc[nH]c1C(N)=O)OCC?
EC50: > 200 µM; IC50: > 200 µM

With COC1C(=O)CCC2(CO2)C1(O)C1(C)OC1CC=C(C)C (stereo not given) as the molecule, how does the EC50 read?
The EC50 was > 200 µM.

What about the IC50 of the same molecule?
The IC50 was 2.88 µM.

Which EC50 does the source give for CN1CCN(c2[nH]c(=O)n(Cc3ccccc3)c(=S)c2C#N)CC1 here?
The EC50 was > 200 µM.

What about the IC50 of the same molecule?
Its IC50 is > 200 µM.

C#CCN(Cc1ccc2nc(-c3ccccc3)c(Cl)nc2c1)c1ccc(F)cc1 was tested. Which EC50 did it give?
The EC50 was > 200 µM.

And the IC50?
The IC50 was 27.5 µM.

What does the source list for CCOc1ccccc1NC(=O)/C=C1\NC(=O)CS1?
EC50: > 158 µM; IC50: 129 µM

How did the EC50 turn out when COc1ccc(CC2NC(=O)C3CCCN3C2=O)cc1 (stereo not given) was run?
Its EC50 is > 200 µM.

And the IC50?
Its IC50 is > 200 µM.

How did the EC50 turn out when COc1ccc(Cc2c(N)[nH]c(=O)[nH]c2=O)cc1 was run?
Its EC50 is > 200 µM.

And the IC50?
The IC50 was > 200 µM.

C/C(=N\NS(=O)(=O)c1ccc(C)cc1)c1ccc[n+]([O-])n1 was tested. Which outcome did it give?
The outcome was “inactive”.

CC12CCC(C)(c3cc(O)c(O)cc31)c1cc(O)c(O)cc12 was tested. Which outcome did it give?
The outcome was “inactive”.

CN(C)c1ccc(C(=O)CCCN2CCC(O)(c3ccc(Cl)cc3)CC2)cc1 was tested. Which EC50 did it give?
Its EC50 is > 25.1 µM.

What about the IC50 of the same molecule?
Its IC50 is > 25.1 µM.

With Cc1cc(CO)c(O)c(C(=O)CC2CC(=O)NC(=O)C2)c1 as the molecule, how does the EC50 read?
The EC50 was > 200 µM.

And the IC50?
The IC50 was 57.5 µM.

What does the source list for O=S(=O)(O)c1cc(S(=O)(=O)O)c2c(Nc3ccnc4ccccc34)ccc(S(=O)(=O)O)c2c1?
EC50: > 200 µM; IC50: > 200 µM

Which results are given for CCC(N)CS(=O)(=O)O (stereo not given)?
EC50: > 200 µM; IC50: > 200 µM

For CCCCCC1=CC(=O)C=C(OC)C12C(=O)Oc1cc(O)c(C(=O)O)c(CCCCC)c12 (stereo not given), which EC50 is on record?
Its EC50 is > 562 µM.

And the IC50?
The IC50 was 77.6 µM.

How did the EC50 turn out when O=C1c2ccccc2C2(O)c3cc4ccccc4cc3OC12O (stereo not given) was run?
Its EC50 is > 589 µM.

What about the IC50 of the same molecule?
Its IC50 is 44.7 µM.

C=C1c2c(Cl)ccc(O)c2C(O)=C2C(=O)C3(O)C(O)=C(C(N)=O)C(=O)C(N(C)C)C3C(O)C12 (stereo not given) was tested. Which EC50 did it give?
The EC50 was > 200 µM.

What about the IC50 of the same molecule?
Its IC50 is 11 µM.

How did the EC50 turn out when CCCCCCC(=O)C/C(=N/NC(N)=S)C(=O)NC1C2CC3CC(C2)CC1C3 (stereo not given) was run?
Its EC50 is > 219 µM.

What about the IC50 of the same molecule?
The IC50 was > 219 µM.

For Cc1ccc(/C(O)=C/c2nc3ccc([N+](=O)[O-])cc3nc2/C=C(\O)c2ccc(C)cc2)cc1, which EC50 is on record?
Its EC50 is > 100 µM.

What about the IC50 of the same molecule?
Its IC50 is 97.7 µM.

How did the EC50 turn out when O=C(O)CCC(=O)c1ccc2oc3ccccc3c2c1 was run?
Its EC50 is > 200 µM.

What about the IC50 of the same molecule?
Its IC50 is > 200 µM.

Which EC50 does the source give for CCn1c2ccccc2c2c(-c3ccccc3)cc3c(c21)C(=O)N(c1ccccc1)C3=O here?
Its EC50 is > 6.61 µM.

What about the IC50 of the same molecule?
Its IC50 is > 6.61 µM.

With C/C(=N\N=C(\N)SB(F)F)c1ccc2ccccc2c1 as the molecule, how does the EC50 read?
The EC50 was > 200 µM.

What about the IC50 of the same molecule?
The IC50 was 29.5 µM.

Which results are given for C/C(=N\NC(=S)N1CCC(C2CCN(C(=S)N/N=C(\C)c3ccccn3)CC2)CC1)c1ccccn1?
EC50: > 3.8 µM; IC50: 1.91 µM

COc1ccc(C(=O)N2CCN(c3ccc4c(c3)OCC(=O)N4)CC2)cc1OC was tested. Which EC50 did it give?
The EC50 was > 200 µM.

What about the IC50 of the same molecule?
Its IC50 is > 200 µM.
